Measured values reported in ChEMBL document CHEMBL1145174, “Potent 4-aryl- or 4-arylalkyl-substituted 3-isoxazolol GABA(A) antagonists: synthesis, pharmacology, and molecular modeling” (J Med Chem, 2005).

Columns and labels:
[1] = test system: GABA-A receptor (Mus musculus); experiment: cells
[2] = biological target: GABA-A receptor; anion channel; experiment: Displacement of [3H]muscimol from rat brain gamma-aminobutyric-acid GABA-A receptor

SMILES	IC50 [1]	Ki [2]
Oc1noc(C2CCNCC2)c1Cc1ccc2cccc(Br)c2c1	226 nM	45 nM
Oc1noc(C2CCNCC2)c1Cc1ccc2c(Br)cccc2c1	215 nM	80 nM
Oc1noc(C2CCNCC2)c1Cc1ccc2ccccc2c1F	242 nM	19 nM
Oc1noc(C2CCNCC2)c1Cc1ccc2ccccc2c1	370 nM	–
Oc1noc(C2CCNCC2)c1Cc1ccc2ccc(Br)cc2c1	384 nM	109 nM
O=c1[nH]oc(C2CCNCC2)c1-c1cccc2ccccc12	334 nM	820 nM
Oc1noc(C2CCNCC2)c1Cc1ccc2ccccc2c1-c1ccccc1	198 nM	21 nM

These reach a lower IC50 [1]. Values come first.

IC50 [1]	Ki [2]	SMILES
159 nM	220 nM	Oc1noc(C2CCNCC2)c1-c1ccccc1
141 nM	36 nM	Oc1noc(C2CCNCC2)c1-c1ccc2ccccc2c1
140 nM	28 nM	N#Cc1c(Cc2c(O)noc2C2CCNCC2)ccc2ccccc12
126 nM	250 nM	Oc1noc(C2CCNCC2)c1Cc1ccc2ccccc2c1Sc1ccccc1
113 nM	16 nM	Oc1noc(C2CCNCC2)c1Cc1ccc2ccccc2c1Cl
61 nM	28 nM	CSc1c(Cc2c(O)noc2C2CCNCC2)ccc2ccccc12
42 nM	10 nM	Oc1noc(C2CCNCC2)c1Cc1ccc2ccccc2c1Br
